Results taken from the supplement of paper PMC10307832.

Legend:
Assay in all cases: relative viability (nuclei count vs DMSO), 5 days (fraction); higher = more cells survive
[1] = compound: C[C@@H](N)c1ccc(C(=O)Nc2ccnc3[nH]ccc23)cc1 + Nc1ncn([C@H]2C[C@H](O)[C@@H](CO)O2)c(=O)n1 [Decitabine] (partner 2 µM)
Method in brief: (§1)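 Cells from lung cancer lines were seeded into 1536-well plates and, one day later, dosed by pin tool. Treatments were either a single drug or a fixed dose of an anchor drug with five library-drug doses (not always all listed) in √10 steps. After 5 days, nuclei were stained in a one-step fixation (final 0.05% Triton X-100, 1% formaldehyde, 1 ug/ml Hoechst) and counted on 4× images, and relative viability is the treated-to-vehicle nuclei ratio, as the median of duplicate plates.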

[2] = compound: C1CNCCC1C2=CC(=NN2)C3=CC=NC=C3 + C[C@]1(O)C[C@@H](c2nc(-c3ccc4ccc(-c5ccccc5)nc4c3)c3c(N)nccn32)C1 [Linsitinib] (partner 1 µM)
Method in brief: as §1

[3] = compound: C[C@@H](N)c1ccc(C(=O)Nc2ccnc3[nH]ccc23)cc1 + COc1cc2c(Oc3ccc(NC(=O)C4(C(=O)Nc5ccc(F)cc5)CC4)cc3F)ccnc2cc1OCCCN1CCOCC1 [Foretinib] (partner 0.25 µM)
Method in brief: as §1

Tanzisertib + Alpelisib = compound: O[C@H]1CC[C@H](Nc2ncc3nc(Nc4c(F)cc(F)cc4F)n([C@H]4CCOC4)c3n2)CC1 [Tanzisertib] + Cc1nc(NC(=O)N2CCC[C@H]2C(N)=O)sc1-c1ccnc(C(C)(C)C(F)(F)F)c1 [Alpelisib] (partner 2 µM)
Method in brief: as §1

| Cell Line | relative viability ([1]; first compound 0.04 µM) | relative viability ([1]; first compound 0.1265 µM) | relative viability ([1]; first compound 0.4 µM) | relative viability ([1]; first compound 1.265 µM) | relative viability ([1]; first compound 4 µM) | relative viability ([2]; first compound 0.08 µM) | relative viability ([2]; first compound 0.8 µM) | relative viability ([2]; first compound 2.53 µM) | relative viability ([2]; first compound 8 µM) | relative viability ([3]; first compound 0.04 µM) | relative viability ([3]; first compound 0.1265 µM) | relative viability ([3]; first compound 0.4 µM) | relative viability ([3]; first compound 1.265 µM) | relative viability ([3]; first compound 4 µM) | relative viability (Tanzisertib + Alpelisib; first compound 0.08 µM) | relative viability (Tanzisertib + Alpelisib; first compound 0.253 µM) | relative viability (Tanzisertib + Alpelisib; first compound 0.8 µM) | relative viability (Tanzisertib + Alpelisib; first compound 2.53 µM) | relative viability (Tanzisertib + Alpelisib; first compound 8 µM) |
| --- | --- | --- | --- | --- | --- | --- | --- | --- | --- | --- | --- | --- | --- | --- | --- | --- | --- | --- | --- |
| NCI-H727 | 1 | 1.03 | 0.942 | 0.764 | 0.908 | 0.362 | 0.338 | 0.294 | 0.21 | 1.07 | 1.07 | 1.36 | 1.26 | 1.24 | 0.511 | 0.463 | 0.654 | 0.515 | 0.684 |
| HARA | 0.54 | 0.672 | 0.52 | 0.611 | 0.401 | 0.938 | 1.07 | 0.983 | 0.939 |  | 0.939 | 0.943 |  | 0.896 | 0.752 | 0.762 | 0.852 | 0.795 | 0.842 |
| NCI-H2228 |  |  |  |  |  | 0.734 | 0.869 | 0.503 | 0.811 | 1.03 | 0.743 | 1.02 | 0.911 | 0.866 | 0.934 | 0.67 | 0.806 | 0.737 | 0.539 |
| LCLC-97TM1 | 0.254 | 0.263 | 0.249 | 0.218 | 0.304 | 0.142 | 0.183 | 0.201 | 0.211 | 0.928 | 0.976 | 0.99 | 1.06 | 0.94 |  | 0.276 | 0.271 | 0.238 | 0.292 |
| LC-2-ad | 0.935 | 0.775 | 0.827 | 0.775 | 0.563 | 0.805 | 0.825 | 0.909 | 0.869 | 0.963 | 0.867 | 0.873 |  | 0.661 | 0.902 | 0.888 | 0.939 | 0.876 | 0.815 |
| SK-LU-1 | 0.587 | 0.654 | 0.585 | 0.516 | 0.472 | 1.05 | 1.07 | 1.19 | 1.23 | 0.96 | 0.804 | 0.82 | 0.732 | 0.573 | 1.15 | 0.976 | 1.12 | 1.23 | 0.912 |
| EKVX | 0.385 | 0.331 | 0.358 | 0.329 | 0.385 | 1.06 | 0.865 | 1.13 | 0.984 | 0.84 | 0.674 | 0.888 | 0.208 | 0.727 | 0.72 | 0.846 | 0.952 | 0.832 | 0.685 |
| HCC-827 |  | 0.33 | 0.379 | 0.227 | 0.331 | 0.992 | 0.963 | 1.05 | 0.956 | 1.1 | 1.13 | 1.09 | 1.11 | 0.945 | 1.08 | 0.97 | 0.946 | 0.895 | 0.391 |
| NCI-H650 |  | 0.3 | 0.369 |  | 0.3 | 0.751 | 0.727 | 1.06 | 0.75 |  | 0.991 | 1.03 | 0.899 | 0.712 | 1.1 | 1.19 | 1.18 | 1.21 | 1.18 |
| CAL-12T |  |  |  |  |  | 0.792 | 0.754 | 0.9 | 0.872 | 1.36 | 1.27 | 1.13 | 1.27 | 0.909 | 1.32 | 1.14 | 1.09 | 1.4 | 1.17 |
| NCI-H2342 | 0.758 | 0.624 | 0.809 | 0.798 | 0.746 |  |  |  |  | 1.09 | 1.22 | 1.01 | 1.21 | 0.933 |  |  |  |  |  |
| SW 900 | 0.412 | 0.43 | 0.43 | 0.509 | 0.421 |  |  |  |  | 1.1 | 0.972 | 0.867 | 0.86 | 0.762 |  |  |  |  |  |
| IA-LM |  |  |  |  |  | 0.717 | 0.893 | 0.958 | 0.621 | 1.28 | 1.33 | 1.43 | 1.2 | 1.08 | 0.908 | 0.802 | 0.83 | 0.85 | 0.956 |
| EPLC-272H | 0.461 | 0.41 | 0.481 |  | 0.492 | 1.15 | 1.15 | 1.22 | 1.17 | 0.715 | 0.747 | 0.797 | 0.768 | 0.587 | 0.998 | 0.942 | 0.951 | 1.01 | 0.971 |
| A-427 | 0.499 | 0.564 | 0.549 | 0.517 | 0.545 | 1.09 | 1.09 | 1.15 | 1.07 | 1.13 | 1 | 1.14 |  | 1.07 | 1.11 | 1.11 | 1.06 | 1.06 | 0.96 |
| NCI-H647 | 0.314 | 0.324 | 0.419 | 0.521 | 0.335 | 1.28 | 1.45 | 1.38 | 1.09 | 1.22 | 1.06 | 1.25 | 1.21 | 0.895 | 1.12 | 1.31 | 1.16 | 1.26 | 1.08 |
| NCI-H1975 | 0.365 | 0.381 | 0.426 | 0.356 | 0.28 | 0.952 | 1.14 | 0.917 | 0.97 | 1.06 | 0.854 | 0.847 | 0.681 | 0.653 | 0.676 | 0.715 | 0.719 | 0.653 | 0.585 |
| NCI-H358 | 0.232 | 0.222 | 0.191 | 0.19 | 0.207 | 0.595 | 0.792 | 0.688 | 0.765 | 0.675 | 0.688 | 0.651 | 0.662 | 0.566 | 0.902 | 0.762 | 0.922 | 0.717 | 0.635 |
| PC-3 [JPC-3] | 0.776 | 0.807 | 0.857 | 0.824 | 0.625 | 0.913 | 0.975 | 0.936 | 0.896 | 1.05 | 0.996 | 1.09 | 0.982 | 0.936 | 1.05 | 1.07 | 1.12 | 1.03 | 0.972 |
